Results taken from patent US10906905B2, “Five-membered heteroaryl ring bridged ring derivative, preparation method therefor and medical use thereof” (Jiangsu Hengrui Medicine Co., Ltd., priority 2016, dated 2021).

Tests used:
[1] = target: TGFβRI kinase ALK5 (Homo sapiens (Human), UniProt P36897); assay: Inhibition of TGFβRI kinase ALK5 activity (TGFβRI kinase assay kit, ADP-Glo); assay type: biochemical; settings: ATP 50 μM; read-out: IC50 of inhibition effect on TGFβRI kinase ALK5 activity
Method: The inhibition effect of TGFβRI kinase activity in vitro was determined by the following method.
The inhibition effect of the compounds of the present invention on TGFβRI kinase ALK5 activity was determined by the following experimental method:
(§1) TGFβRI kinase assay kit (V4093, Promega) was used to assay enzyme activity. 2 μl of enzyme solution (the final concentration of enzyme in the reaction system was 2 ng/μL) formulated with reaction buffer (40 mM Tris pH 7.5, 20 mM MgCl2, 0.1 mg/ml BSA), 1 μl of a 3-fold gradient dilution of the compounds dissolved in 5% DMSO, and 2 μl of a mixed solution of ATP and TGFβRI substrate peptide (the final concentration of ATP was 50 μM, and the final concentration of substrate was 0.2 μg/μL) were added successively to a 384-well plate (4514, Corning). After reaction at 27° C. for 2.5 hours, 5 μl of ADP-Glo solution in the kit was added to each well, then the plate was placed at 27° C. for 40 minutes. 10 μl of kinase assay reagent was then added to each well, then the plate was placed at 27° C. for 30 minutes. The chemiluminescence signal values were measured with a Victor 3 (PerkinElmer) multi-function microplate reader. The IC50 values of the compounds for enzyme inhibition were calculated using Graphpad prism software based on each concentration of the compound and the corresponding signal value thereof.

[2] = target: recombinant human VEGFR2 enzyme (Homo sapiens (Human), UniProt P35968); assay: Inhibition of VEGFR2 kinase activity (Z'-LYTE Kinase Assay Kit); assay type: biochemical; settings: ATP 50 μM; read-out: IC50 of inhibition effect on VEGFR2 kinase activity
recombinant human VEGFR2 enzyme, sequence (P35968 20-1356): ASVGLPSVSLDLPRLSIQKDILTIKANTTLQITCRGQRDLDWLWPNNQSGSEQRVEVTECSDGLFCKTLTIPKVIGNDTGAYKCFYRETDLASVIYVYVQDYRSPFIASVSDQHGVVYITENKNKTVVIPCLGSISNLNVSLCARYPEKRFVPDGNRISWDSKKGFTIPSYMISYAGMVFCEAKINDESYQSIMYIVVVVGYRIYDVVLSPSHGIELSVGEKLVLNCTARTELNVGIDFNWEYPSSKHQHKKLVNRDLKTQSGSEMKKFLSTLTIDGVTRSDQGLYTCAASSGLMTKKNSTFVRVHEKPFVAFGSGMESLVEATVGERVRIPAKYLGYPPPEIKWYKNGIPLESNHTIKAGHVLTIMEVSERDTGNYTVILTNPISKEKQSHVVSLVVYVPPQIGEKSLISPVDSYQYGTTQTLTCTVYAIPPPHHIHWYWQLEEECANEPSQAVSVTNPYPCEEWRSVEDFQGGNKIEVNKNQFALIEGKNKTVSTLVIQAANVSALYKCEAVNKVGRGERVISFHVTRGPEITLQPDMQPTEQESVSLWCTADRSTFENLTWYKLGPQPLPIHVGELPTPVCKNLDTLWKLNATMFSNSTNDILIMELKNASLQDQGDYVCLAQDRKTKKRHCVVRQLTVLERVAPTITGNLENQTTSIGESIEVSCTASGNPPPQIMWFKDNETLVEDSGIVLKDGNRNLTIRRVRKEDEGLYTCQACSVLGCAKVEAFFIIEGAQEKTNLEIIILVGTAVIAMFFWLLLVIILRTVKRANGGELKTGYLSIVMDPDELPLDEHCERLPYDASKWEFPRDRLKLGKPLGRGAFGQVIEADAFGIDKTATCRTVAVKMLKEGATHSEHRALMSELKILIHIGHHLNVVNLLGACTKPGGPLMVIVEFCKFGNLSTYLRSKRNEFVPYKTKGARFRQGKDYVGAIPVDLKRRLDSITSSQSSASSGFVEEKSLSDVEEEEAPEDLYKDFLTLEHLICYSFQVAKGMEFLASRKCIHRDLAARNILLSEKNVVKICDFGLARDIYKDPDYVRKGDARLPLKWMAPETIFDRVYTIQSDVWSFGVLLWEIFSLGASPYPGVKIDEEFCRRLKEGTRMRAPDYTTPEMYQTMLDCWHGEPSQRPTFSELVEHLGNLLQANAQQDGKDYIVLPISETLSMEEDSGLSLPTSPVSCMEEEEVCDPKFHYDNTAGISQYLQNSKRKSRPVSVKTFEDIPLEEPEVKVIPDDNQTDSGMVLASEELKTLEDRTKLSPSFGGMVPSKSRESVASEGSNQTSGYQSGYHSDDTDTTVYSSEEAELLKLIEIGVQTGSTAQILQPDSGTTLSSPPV
Method: The inhibition effect of VEGFR2 kinase activity in vitro was determined by the following method.
The inhibition effect of the compounds of the present invention on VEGFR2 kinase activity was determined by the following experimental method:
After reaction at 25° C. for 2 hours, 5 μL of detection reagent was added to each well. […] The IC50 values of the compounds for enzyme inhibition were calculated using Graphpad prism software based on each concentration of the compound and the corresponding signal value thereof.

[3] = target: p38α kinase (Homo sapiens (Human), UniProt Q16539); assay: Inhibition of p38α kinase activity (p38α kinase assay kit, ADP-Glo); assay type: biochemical; settings: ATP 50 μM; read-out: IC50 of inhibition effect on p38α kinase activity
p38α kinase, sequence (Q16539 whole entry): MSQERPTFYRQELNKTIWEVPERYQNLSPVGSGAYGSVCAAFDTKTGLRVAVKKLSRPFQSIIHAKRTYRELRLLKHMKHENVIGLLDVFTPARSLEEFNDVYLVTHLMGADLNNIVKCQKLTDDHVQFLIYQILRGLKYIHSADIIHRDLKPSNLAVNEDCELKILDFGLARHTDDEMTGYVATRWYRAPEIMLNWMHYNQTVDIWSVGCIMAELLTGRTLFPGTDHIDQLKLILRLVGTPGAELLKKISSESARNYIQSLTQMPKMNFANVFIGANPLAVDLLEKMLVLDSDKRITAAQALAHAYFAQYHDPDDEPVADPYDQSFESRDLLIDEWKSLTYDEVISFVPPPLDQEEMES
Method: The inhibition of p38α kinase activity in vitro was determined by the following method.
The inhibition effect of the compounds of the present invention on p38a kinase activity was determined by the following experimental method:
as §1, with “p38α kinase” for “TGFβRI kinase”, “kit (V9591,” for “kit (V4093,”, “was 0.5” for “was 2”, “and p38” for “and TGFβRI”, “compounds on” for “compounds for”

[4] = tested on: Smad signaling pathway of TGFβRI; assay: Inhibition of Smad signaling pathway of TGFβRI (3TP-lux luciferase reporter in HepG2 cell); assay type: cell-based; settings: Homo sapiens; HepG2 cell, 3TP-lux plasmid, 18 hours; read-out: IC50 on the inhibition of Smad signaling pathway of TGFβRI
Method: The inhibition effect of the compounds of the present invention on Smad signaling pathway of TGFβRI was determined by the following in vitro test.
The inhibition effect of the compounds of the present invention on Smad signaling pathway of TGFβRI was determined by the following experimental method:
The seeding density is 2.5×10^4 cells/well. The cells were incubated overnight at 37° C., 5% CO2. Each well was replaced with fresh EMEM medium containing 10% FBS. […] The cells were further incubated for 24 hours at 37° C., 5% CO2. Each well was replaced with 90 μL of EMEM medium containing 0.5% FBS, then the cells were starved for 6 hours. The compounds were formulated as a 20 mM stock solution, which was diluted in gradient to a 400× concentration with 100% DMSO, and further 40-fold diluted with EMEM containing 0.5% FBS. The cell culture plate was taken out, then 10 μl of diluted compound or control (0.25% DMSO) was added to each well respectively. The plate was shaken gently, then incubated for 18 hours in an incubator at 37° C., 5% CO2. Finally, 100 μl of detection reagent ONE-Glo™ Luciferase Assay (E6110, Promega) was added to each well, and the plate was placed in dark at room temperature for 10 minutes. The chemiluminescence signal values were measured with a Victor 3.0 (PerkinElmer). The IC50 values of the compounds were calculated using Graphpad Prism software based on each concentration of the compound and the corresponding signal value thereof.

[5] = tested on: NIH3T3 cell; assay: Inhibition of NIH3T3 cell proliferation (CellTiter-Glo); assay type: cell-based; settings: Mus musculus, 72 hours, 0.5% FBS
Method: The inhibition effect of the compounds of the present invention on NIH3T3 cell proliferation was determined by the following in vitro test.
The inhibition effect of the compounds of the present invention on NIH3T3 cell proliferation was determined by the following experimental method:
On a 96-well white plate with transparent bottom (3903, Corning), 100 μL of NIH3T3 cell (GNM6, Cell Bank of Typical Culture Collection Committee of Chinese Academy of Sciences) was seeded in a DMEM medium containing 10% FBS in each well. The seeding density is 2000 cells/well. The cells were incubated overnight at 37° C., 5% CO2. After overnight incubation, each well was replaced with 90 μL of DMEM medium containing 0.5% FBS. 10 μl of a 3-fold gradient dilution of the compounds with DMEM medium containing 0.5% FBS was then added, and the plate was incubated for 72 hours in a cell incubator at 37° C., 5% CO2. Finally, 50 μL of CellTiter-Glo (G7573, Promega) was added to each well. After incubation for 10 minutes at room temperature, the chemiluminescence signal values were measured with a Victor 3 microplate reader (PerkinElmer). The IC50 values of the compounds were calculated using Graphpad Prism software based on each concentration of the compound and the corresponding signal value thereof.

[6] = Pharmacokinetics assay in rats after intragastrical administration; assay type: in vivo; settings: both sexes, Sprague-Dawley, rat, plasma, po, SD rats, 2 mg/kg
Method: Rats were used as test animals. The drug concentration in plasma at different time points was determined by LC/MS/MS method after intragastrical administration of the compounds of Examples 1-1, 1-2, 2-1, 3-1, the compound with retention time of 6.631 minutes among Examples 9-1 and 9-2, and the compounds of Examples 33 and 39-1 to rats. The pharmacokinetic behavior of the compounds of the present invention was studied and evaluated in rats.
Compounds of Examples 1-1, 1-2, 2-1, 3-1, compound with retention time of 6.631 minutes among Examples 9-1 and 9-2, and compounds of Examples 33 and 39-1.
Twenty-eight healthy adult Sprague-Dawley (SD) rats (half male and half female) were purchased from SINO-BRITISH SIPPR/BK LAB. ANIMAL LTD., CO, with Certificate No.: SCXK (Shanghai) 2008-0016, and equally divided into 7 groups (4 rats per group).
A certain amount of the test compound was weighed, and added with 5% by volume of DMSO, 5% by volume of Tween 80, and 90% by volume of physiological saline were added to prepare a 0.2 mg/mL colorless, clear and transparent solution.
After an overnight fast, SD rats were administered intragastrically the test compounds at an administration dosage of 2.0 mg/kg and an administration volume of 10.0 mL/kg.
The rats were intragastrically administered the compounds of Examples 1-1, 1-2, 2-1, 3-1, the compound with retention time of 6.631 minutes among Examples 9-1 and 9-2, and the compounds of Examples 33 and 39-1.0.2 mL of blood was taken from the orbital sinus before administration and at 0.5, 1.0, 2.0, 4.0, 6.0, 8.0, 11.0 and 24.0 hours after administration. The samples were stored in heparinized tubes, and centrifuged for 10 minutes at 4° C. at 3,500 rpm to separate the blood plasma. The plasma samples were stored at −20° C. The rats were fed 2 hours after administration.
The content of the test compounds in the plasma of rats after intragastrical administration of the test compounds at different concentrations was determined: 25 μL of rat plasma at each time after administration was taken, added with 50 μL (100 ng/mL) of the internal standard solution of camptothecin and 175 μL of acetonitrile, shaken vertically for 5 minutes, and centrifuged for 10 minutes (4000 rpm). 3.0 μL of the supernatant was taken from the plasma samples for LC/MS/MS analysis.

TGFβRI kinase ALK5, sequence (P36897 34-503): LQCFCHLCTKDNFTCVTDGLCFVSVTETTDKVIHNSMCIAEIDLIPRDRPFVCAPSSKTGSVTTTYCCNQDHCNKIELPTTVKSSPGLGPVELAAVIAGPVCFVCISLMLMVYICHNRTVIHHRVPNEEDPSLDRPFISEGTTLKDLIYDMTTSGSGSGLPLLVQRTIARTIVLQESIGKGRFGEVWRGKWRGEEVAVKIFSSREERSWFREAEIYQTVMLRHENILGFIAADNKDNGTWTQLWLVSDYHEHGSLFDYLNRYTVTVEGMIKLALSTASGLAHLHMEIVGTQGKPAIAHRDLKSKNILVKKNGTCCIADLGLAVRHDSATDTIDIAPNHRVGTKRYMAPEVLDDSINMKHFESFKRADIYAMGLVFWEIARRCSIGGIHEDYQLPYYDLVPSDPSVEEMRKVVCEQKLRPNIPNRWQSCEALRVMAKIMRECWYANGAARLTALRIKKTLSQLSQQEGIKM

SMILES | IC50 [2] | IC50 [3] | IC50 [1] | IC50 [4] | IC50 [5] | further results
Cc1cccc(-c2nc3n(c2-c2cc4cnccc4s2)C2CCC3C2)n1 (stereo not shown) [Example 10, 2-(2-(6-Methylpyridin-2-yl)-5,6,7,8-tetrahydro-5,8-methanoimidazo[1,2-a]pyridin-3-yl) thieno[3,2-c]pyridine] |  |  | 25 nM | 23 nM | 41 nM | 
Cc1cccc(-c2nc3n(c2-c2ccc4ncnn4c2)C2CCC3C2)n1 (stereo not shown) [Example 11, 3-([1,2,4]Triazolo[1,5-a]pyridin-6-yl)-2-(6-methylpyridin-2-yl)-5,6,7,8-tetrahydro-5,8-methanoimidazo[1,2-a]pyridine] |  |  | 16 nM | 26 nM | 37 nM | 
Cc1cccc(-c2nn3c(c2-c2ccnc(-c4ccc(S(C)(=O)=O)cc4)c2)C2CCC3CC2)n1 [Example 33, 2-(6-Methylpyridin-2-yl)-3-(2-(4-(methylsulfonyl)phenyl)pyridin-4-yl)-4,5,6,7-tetrahydro-4,7-ethanopyrazolo[1,5-a]pyridine] |  | 563 nM | 34 nM | 87 nM |  | Vd/F ([6]; read-out: Apparent distribution volume Vz/F): 16.4 ± 10.7 L/kg; AUC ([6]; read-out: Area under curve AUC): 228 ± 159 ng·h/mL; CL/F ([6]; read-out: Clearance CLz/F): 193 ± 95 mL/min/kg; half-life ([6]; read-out: Half-life T1/2 (converted)): 0.973 ± 0.3 h; Cmax ([6]; read-out: Plasma concentration Cmax): 178 ± 113 ng/mL; MRT ([6]; read-out: Residence time MRT): 1.2 ± 0.35 h
Cc1cccc(-c2nn3c(c2-c2ccc4ncnn4c2)C2CCC3CC2)n1 [Example 38, 3-([1,2,4]Triazolo[1,5-a]pyridin-6-yl)-2-(6-methylpyridin-2-yl)-4,5,6,7-tetrahydro-4,7-ethanopyrazolo[1,5-a]pyridine] |  |  | 9 nM | 11 nM | 33 nM | 
NC(=O)c1ccnc2ccc(-c3c(-c4ccccn4)nc4n3[C@H]3CC[C@@H]4C3)cc12 [Example 45-1, 6-((5S,8R)-2-(Pyridin-2-yl)-5,6,7,8-tetrahydro-5,8-methanoimidazo[1,2-a]pyridin-3-yl) quinoline-4-carboxamide] |  |  | 29 nM | 32 nM | 51 nM | 

Now from value to compound, other results behind:

IC50 [2] | IC50 [3] | SMILES | IC50 [1] | IC50 [4] | IC50 [5] | further results
928 nM | 654 nM | Cc1cccc(-c2nc3n(c2-c2ccnc(-c4ccc(S(C)(=O)=O)cc4)c2)[C@@H]2CC[C@H]3C2)n1 [Example 3-2, (5R,8S)-2-(6-Methylpyridin-2-yl)-3-(2-(4-(methylsulfonyl)phenyl)pyridin-4-yl)-5,6,7,8-tetrahydro-5,8-methanoimidazo[1,2-a]pyridine] | 23 nM | 31 nM |  | 
 | 454 nM | Cc1cccc(-c2nc3n(c2-c2ccnc(-c4cnn(C)c4)c2)C2CCC3C2)n1 (stereo not shown) [Example 12, 3-(2-(1-Methyl-1H-pyrazol-4-yl)pyridin-4-yl)-2-(6-methylpyridin-2-yl)-5,6,7,8-tetrahydro-5,8-methanoimidazo[1,2-a]pyridine] | 9 nM | 33 nM | 13 nM | 
> 10000 nM |  | Cc1cccc(-c2nc3n(c2-c2ccnc(NCCN4CCOCC4)c2)[C@H]2CC[C@@H]3C2)n1 [Example 16-1, 4-((5S,8R)-2-(6-Methylpyridin-2-yl)-5,6,7,8-tetrahydro-5,8-methanoimidazo[1,2-a]pyridin-3-yl)-N-(2-morpholinoethyl)pyridin-2-amine] | 77 nM |  |  | 
9740 nM | 7780 nM | CS(=O)(=O)c1ccc(-c2cc(-c3c(-c4ccc(F)cn4)nc4n3[C@H]3CC[C@@H]4C3)ccn2)cc1 [Example 42-1, (5S,8R)-2-(5-Fluoropyridin-2-yl)-3-(2-(4-(methylsulfonyl)phenyl)pyridin-4-yl)-5,6,7,8-tetrahydro-5,8-methanoimidazo[1,2-a]pyridine] |  | 31 nM |  | 
